Patent US12187717B2, “Compound and use thereof in treating autoimmune diseases” (PARENCHYMA BIOTECH INC., priority 2022, dated 2025)

Test system: Th17 cells
Test: IL-17A production of Th17 cells (flex set, flow cytometry)
Type: cell-based, C57BL/6 mice
Conditions: 1.0 μM, 2.5 μM and 5 μM, 3 days, compared to Comparative Example 1
Protocol: The spleen of C57BL/6 mice (8 to 12 weeks old, female) was excised, pulverized by adding IMDM medium, and then passed through a 40 μm cell strainer (BD Falcon), thereby obtaining a single cell suspension. The single cell suspension was centrifuged (1200 rpm, 5 minutes), and after discarding the supematant, 1 ml of ACK lysis buffer was added, followed by stirring for 1 minute and then washing the same with RPMI medium. After the single cell suspension was centrifuged, T-cells were separated using a Mouse CD4 Naive T cell Enrichment Kit (Invitrogen). The separated T-cells were prepared by resuspending them in RPMI-fetal bovine serum (FBS) 10%+2-ME (mercaptoethanol) medium at 1×10^6/ml. For T-cell activation, 5 μg/ml anti-CD3 (eBioscience™) was dispensed by 100 μl onto a 96-well plate, reacted in a cell incubator (37° C., 5% CO2 incubator) for 4 hours, and washed with phosphate buffered saline to prepare the plate. The T-cells were dispensed by 200 μl onto the prepared plate, and each well was treated with 2 μg/ml of anti-CD28 (eBioscience™), 3 ng/ml of TGFβ-1 (R&D systems), 10 ng/ml of IL-2 (R&D systems), 5 μg/ml of anti-mouse IFN-γ (Bio X cell), and 5 μg/ml of anti-mouse IL-4 (Bio X cell). […]

O=C(Cc1c[nH]c2ccc(Cl)cc12)Nc1nc2ccc(N3CCOCC3)cc2s1 [Compound 6, 2-(5-chloro-1H-indol-3-yl)-N-(6-morpholinobenzo[d]thiazol-2-yl)acetamide]
IL-17A production of Th17 cells: significantly decreased
